Measured values from patent US20240358693A1, “METHODS OF TREATING PAIN” (Aisa Pharma, Inc., priority 2023, published 2024).

Tested on: participants with SSc-RP
Test: Scleroderma Health Assessment Questionnaire (SHAQ): disability indices and visual analog scales
Assay type: in vivo, human
Conditions: Part A, sensitivity analysis
Description: The standard, validated, patient reported outcome measures tool for SSc patients, the Scleroderma Health Assessment Questionnaire (SHAQ), will be used to assess the participant qualify of life. Details are attached in the Appendix. The participant quality of life will be scored, and a disability index calculated for each questionnaire completed by the patient at Screening and each in-clinic visit. The absolute change in participant quality of life from baseline to the end of each dosing period will be calculated similar to frequency data as before.
The SHAQ includes a Raynaud's VAS, which will be reported at screening and each in-clinic visit. The absolute change in Raynaud-VAS, assessed by the participants response to the SHAQ question ‘In the past 7 days, how much have your Raynaud's interfered with your daily activities?’ at baseline and the end of each dosing period will be calculated similar to frequency data as before.
The SHAQ is used to calculate a Disability Index to assess the participant qualify of life. The eight categories assessed by the Disability Index are 1) dressing and grooming, 2) arising, 3) eating, 4) walking, 5) hygiene, 6) reach, 7) grip, and 8) common daily activities. For each of these categories, patients report the amount of difficulty they have in performing two or three specific activities.
There are four possible responses for the Disability Index questions: • Without any difficulty=0 • With some difficulty=1 • With much difficulty=2 • Unable to do=3. • The highest score reported by the patient for any component question of the eight categories determines the score for that category. • If a component question is left blank or the response is too ambiguous to assign a score, then the score for that category is determined by the remaining completed question(s). • If all component questions are blank or if more than one answer is given, then follow up with the respondent is required. • If the respondent's mark is between the response columns, then move it to the closest one. If it's directly between the two, move it to the higher one.
Each of the disability items on the SHAQ has a companion aids/devices variable that is used to record what type(s) of assistance, if any, the participant uses for his/her usual activities. These variables (see below) are coded as follows: • 0=No assistance is needed. • 1=A special device is used by the patient in his/her usual activities. • 2=The patient usually needs help from another person. • 3=The patient usually needs BOTH a special device AND help from another person.
The scoring variables and scoring rules permit the computation of two disability indices, the Standard Disability Index and the Alternative Disability Index.
This question results in a new set of category scores that are computed by adjusting the score for each category, if necessary, based on the patient's use of an aid or device or assistance for that category. If either devices and/or help from another person are checked for a category, the score is set to “2”, unless the score is already “3” (i.e., scores of “0” or “1” are increased to “2”). For example, if the highest score for the dressing category is “1”, and the patient says they use a device for dressing, the computed category score would be “2”. The sum of the computed categories scores is then calculated and divided by the number of categories answered. This gives a score in the 0 to 3 range.
The aid and device variables are not used to calculate the alternative disability index; it is calculated by adding the scores for each of the categories and dividing by the number of categories answered. This gives a score in the 0 to 3 range.
The standard, validated, patient reported outcome measures tool for SSc patients, the SHAQ, was collected at the time points specified in the study schedules (FIG. 2 and FIGS. 4A and 4B) to assess the participant's quality of life. The SHAQ included a Raynaud's VAS that will also be reported separately.

[1] = PP Population, pooled cilnidipine 10 mg and 20 mg arms (plus tadalafil 5 mg where labelled)
[2] = Pooled Cilnidipine 10 mg and Cilnidipine 10 mg + Tadalafil 5 mg (N = 9), Modified ITT

Question: Which results are given for COCCOC(=O)C1=C(C)NC(C)=C(C(=O)OC/C=C/c2ccccc2)C1c1cccc([N+](=O)[O-])c1 (centres unmarked) [Cilnidipine, cilnidipine]?
Answer: SHAQ Alternative Disability Index: Baseline, Mean [1]: 0.359; SHAQ Alternative Disability Index: Baseline, Median [1]: 0.250; SHAQ Alternative Disability Index: Change from Baseline (Day 12), Mean [1]: 0.031; SHAQ Alternative Disability Index: Change from Baseline (Day 12), Median [1]: 0.000; SHAQ Alternative Disability Index: In-Clinic Visit (Day 12), Mean [1]: 0.391; SHAQ Alternative Disability Index: In-Clinic Visit (Day 12), Median [1]: 0.188; SHAQ Alternative Disability Index: Percent Change from Baseline (Day 12), Mean [1]: 9.68%; SHAQ Alternative Disability Index: Percent Change from Baseline (Day 12), Median [1]: −11.11%; SHAQ Standard Disability Index: Baseline, Mean [2]: 0.597; SHAQ Standard Disability Index: Baseline, Median [2]: 0.500; SHAQ Standard Disability Index: Change from Baseline, Mean [2]: −0.021; SHAQ Standard Disability Index: Change from Baseline, Median [2]: 0.000; SHAQ Standard Disability Index: Day 12, Mean [2]: 0.576; SHAQ Standard Disability Index: Day 12, Median [2]: 0.375; SHAQ Standard Disability Index: Percent Change from Baseline, Mean [2]: 7.50%; SHAQ Standard Disability Index: Percent Change from Baseline, Median [2]: 0.00%; SHAQ VAS Breathing Problems: Baseline, Mean [2]: 1.511; SHAQ VAS Breathing Problems: Baseline, Median [2]: 0.800; SHAQ VAS Breathing Problems: Change from Baseline, Mean [2]: −0.175; SHAQ VAS Breathing Problems: Change from Baseline, Median [2]: 0.000; SHAQ VAS Breathing Problems: Day 12, Mean [2]: 1.375; SHAQ VAS Breathing Problems: Day 12, Median [2]: 0.000; SHAQ VAS Breathing Problems: Percent Change from Baseline, Mean [2]: −26.05%; SHAQ VAS Breathing Problems: Percent Change from Baseline, Median [2]: −21.33%; SHAQ VAS Finger Ulcers: Baseline, Mean [2]: 0.656; SHAQ VAS Finger Ulcers: Baseline, Median [2]: 0.200; SHAQ VAS Finger Ulcers: Change from Baseline, Mean [2]: −0.267; SHAQ VAS Finger Ulcers: Change from Baseline, Median [2]: −0.100; SHAQ VAS Finger Ulcers: Day 12, Mean [2]: 0.389; SHAQ VAS Finger Ulcers: Day 12, Median [2]: 0.000; SHAQ VAS Finger Ulcers: Percent Change from Baseline, Mean [2]: −46.06%; SHAQ VAS Finger Ulcers: Percent Change from Baseline, Median [2]: −31.94%; SHAQ VAS Intestinal Problems: Baseline, Mean [2]: 2.444; SHAQ VAS Intestinal Problems: Baseline, Median [2]: 1.100; SHAQ VAS Intestinal Problems: Change from Baseline, Mean [2]: −1.228; SHAQ VAS Intestinal Problems: Change from Baseline, Median [2]: −0.250; SHAQ VAS Intestinal Problems: Day 12, Mean [2]: 1.217; SHAQ VAS Intestinal Problems: Day 12, Median [2]: 0.700; SHAQ VAS Intestinal Problems: Percent Change from Baseline, Mean [2]: −27.93%; SHAQ VAS Intestinal Problems: Percent Change from Baseline, Median [2]: −54.13%; SHAQ VAS Overall Disease Severity: Baseline, Mean [2]: 3.044; SHAQ VAS Overall Disease Severity: Baseline, Median [2]: 1.900; SHAQ VAS Overall Disease Severity: Change from Baseline, Mean [2]: −0.606; SHAQ VAS Overall Disease Severity: Change from Baseline, Median [2]: −0.700; SHAQ VAS Overall Disease Severity: Day 12, Mean [2]: 2.439; SHAQ VAS Overall Disease Severity: Day 12, Median [2]: 1.900; SHAQ VAS Overall Disease Severity: Percent Change from Baseline, Mean [2]: −24.68%; SHAQ VAS Overall Disease Severity: Percent Change from Baseline, Median [2]: −30.93%; SHAQ VAS Pain: Baseline, Mean [2]: 3.278; SHAQ VAS Pain: Baseline, Median [2]: 3.100; SHAQ VAS Pain: Change from Baseline, Mean [2]: −0.633; SHAQ VAS Pain: Change from Baseline, Median [2]: −0.700; SHAQ VAS Pain: Day 12, Mean [2]: 2.644; SHAQ VAS Pain: Day 12, Median [2]: 2.900; SHAQ VAS Pain: Percent Change from Baseline, Mean [2]: −20.07%; SHAQ VAS Pain: Percent Change from Baseline, Median [2]: −21.87%; SHAQ VAS Raynaud's: Baseline, Mean [2]: 2.733; SHAQ VAS Raynaud's: Baseline, Median [2]: 1.400; SHAQ VAS Raynaud's: Change from Baseline, Mean [2]: −0.414; SHAQ VAS Raynaud's: Change from Baseline, Median [2]: −0.100; SHAQ VAS Raynaud's: Day 12, Mean [2]: 2.319; SHAQ VAS Raynaud's: Day 12, Median [2]: 2.600
